What was measured:
blood-brain barrier = experiment: Neuromics in vitro 3D blood-brain barrier model (brain endothelial cells, pericytes, astrocytes); type: in vitro ADME, human; conditions: for blood-brain barrier penetration (in words): in vitro model system
From the text: (§1) To evaluate the in vivo therapeutic activity of Hydroxyureamethyl-acylfulvene in mice bearing glioblastoma U87-SC cells (without any drug treatment in vitro) were inoculated subcutaneously.
(§2) By way of background, the physically, metabolically and immunologically privileged status of the brain presents diagnostic and therapeutic limitations along with treatment-related neurotoxicity issues. A critical property of any drug for GBM would be its ability to penetrate the blood-brain barrier (BBB). […] In the highly representative Neuromics in vitro 3D model that closely recapitulates the human blood-brain barrier, transport properties of the blood-brain barrier are reflected due to the formation of tight junctions, higher expression of specific carriers, or great cell viability. This 3D in vitro model of the blood-brain barrier created by co-culturing brain endothelial cells with pericytes and astrocytes layered in an insert, improves endothelial cell polarization and enhances the formation of tight junctions, provides better endothelial cell-to-cell contact that is important for barrier development, and prevents the dilution of secreted neurotrophic factors. These conditions collectively lead to the development of an in vitro model that can truly mimic the blood-brain barrier. This assay leverages the novel 3D blood-brain barrier model that allows studying both compound transport across the barrier as well as the effect of compounds on the structure and function of the blood-brain barrier. Along with LP-184 and TMZ, the current standard of care chemotherapeutic for GBM, we also compared the behavior of known positive and negative control agents Antipyrine and Cyclosporin A respectively as benchmarks. […] Apparent blood brain barrier permeability measured for TMZ was 1.72*10-4 cm/s at 30 minutes and for LP-184 was 1.53*10-4 cm/s at 30 minutes, as illustrated in the following graph.

[1] = tested on: glioblastoma U87-SC cells; experiment: U87 subcutaneous xenograft tumor model of GBM; type: in vivo, mice; conditions: 4 every other day intravenous doses at 4 mg/kg
From the text: as §1

GBM neurospheres (M1123) = experiment: Mice implanted with GBM neurospheres (M1123), subcutaneous tumor model; type: in vivo
[2] = Neuromics in vitro 3D blood-brain barrier model (brain endothelial cells, pericytes, astrocytes); type: in vitro ADME, human; conditions: human
From the text: as §1, §2

Compound | blood-brain barrier integrity (blood-brain barrier; FIG. 3) | impact on cell viability (blood-brain barrier; blood-brain barrier model, FIG. 3/4) | blood-brain barrier penetration (in words) (blood-brain barrier) | blood-brain barrier penetration (in words) (blood-brain barrier; listed as Hydroxyureamethyl-acylfulvene) | tumor response [1] | mice with no measurable tumors 12 days post the last dosing ([1]; 5 mice treated) | tumor response (GBM neurospheres (M1123); 4 every other day intravenous doses at 4 mg/kg) | mice with no measurable tumor after 12 days of the last dose (GBM neurospheres (M1123); 4 every other day intravenous doses at 4 mg/kg, four mice) | tumor volume relative to vehicle-treated control mice (physical observation) (GBM neurospheres (M1123); FIG. 7) | Papp at 30 min [2]
CC1=C(CN(O)C(N)=O)C2=C(C)C3(CC3)[C@@](C)(O)C(=O)C2=C1 [LP-184, hydroxyureamethyl-acylfulvene] | not compromised | insignificant impact on cell viability | as effective as TMZ in penetrating the blood-brain barrier | shown to cross the blood-brain barrier | complete tumor regression | all 5 mice | complete tumor regression | Three of four mice | clear tumor growth inhibition | 
Cn1nnc2c(C(N)=O)ncn2c1=O [TMZ, temozolomide, reference compound] |  |  |  |  |  |  |  |  |  | 172 ×10⁻⁶ cm/s
